In publication PMC11968843, “Sulphostin-inspired N-phosphonopiperidones as selective covalent DPP8 and DPP9 inhibitors” (Nature Communications, 2025):
Values joined by “and” are separate entries in the source; they are usually repeats but may differ in a detail not shown here. Equal values may be shown once. “Also recorded” adds a separate entry of the source.

Legend:
[1] = target: T1, DPP9-BRCA2 interaction in HeLa wild-type cells (Homo sapiens, UniProt Q86TI2); test: Proximity ligation assay (PLA) of MMC-induced DPP9-BRCA2 interaction; type: cell-based; details: for 95% confidence interval of difference: compound vs. +Ctrl., Unpaired two-sided t-test
T1 construct: endogenous in cells; host or cells: HeLa wild-type (HeLa Flp-In T-REx WT)
Method: HeLa wild-type cells were cultured as described above. Cells were seeded on coverslips in 24‐well plates (Greiner, Germany) at a concentration of 2 × 10^4 cells per well (37 °C and 5% CO2). To induce a DPP9-BRCA2 interaction, 300 nM MMC was added to the cells 8 h after seeding and for a total incubation time of 24 h. Indicated Inhibitors (10 µM) were added 1 h prior to cell fixation. Cells were fixed with 4% formaldehyde in PBS for 10 min and permeabilized with 0.2% Triton‐X‐100 in PBS for 5 min. The proximity ligation assay (PLA) was performed using the Duolink in situ PLA Kit (Sigma Aldrich, USA). Briefly, cells were washed with PBS and blocked with Duolink Blocking solution for 60 min at 37 °C. […] Antibody control coverslips were treated with only one primary antibody to estimate background staining in each experiment. Coverslips were washed and treated with PLA reagents according to the manufacturers protocol. Cells were mounted in DAKO with DAPI fluorescent mounting medium and analyzed using an LSM 710 confocal microscope, 63x NA 1.4 oil immersion objective (Zeiss, Germany). Images were processed using Zen black v2.3 (Zeiss, Germany) and subsequently analyzed using the Duolink ImageTool Setup 1.0.1.2 (Sigma Aldrich, USA).

DPP8 = target: T2, DPP8 (Homo sapiens, UniProt Q6V1X1); test: biochemical; type: biochemical; details: for IC50: GP-AMC 250 µM, 10 nM enzyme, 45 min pre-incubation at 30 °C, read-out: IC50 DPP8
T2 construct: purchased Proteros Biostructures GmbH, Germany
Method: (§1) Enzyme activity of DPP4, DPP8, DPP9 (Proteros Biostructures GmbH, Germany) and PREP (Sigma Aldrich, USA) was determined by measuring the initial velocity of AMC release from the fluorogenic substrate GP-AMC (Sigma Aldrich, USA) using a Tecan Spark® 10 M multimode microplate reader (Tecan Group Ltd., Switzerland) in activity buffer (20 mM HEPES/KOH pH 7.3, 110 mM potassium acetate, 2 mM Mg acetate, 0.5 mM EGTA, 0.02% Tween 20, supplemented with 1 mM DTT) and a final volume of 20 μL for maximal 60 min at 30 °C. Prior to activity measurement, 10 nM enzyme was incubated for 45 min at 30 °C and gentle shaking with the inhibitor compounds in concentrations ranging from 0 to 100 μM. The compounds were dissolved in DMSO and diluted in activity buffer (final DMSO concentration: 1%). […] IC50 values were calculated using Graph-Pad Prism v10.2.3 using the equation: [Inhibitor] vs. response—Variable slope (four parameters). All measurements were performed in triplicates and error bars represent standard errors of the fit.

HeLa wild-type cells [2] = test: Cell viability assay (MTT), inhibitor alone; type: cell-based; details: for Cell viability normalized to mock treated cells + 0 µM MMC: individual replicate values (Supplementary Figure 11a); for 95% confidence interval of difference: Figure 5d S11a, Ctrl. [-MMC] vs. compound [-MMC], Tukey's multiple comparisons test
Method: (§2) HeLa wild-type (HeLa Flp-In T-REx WT, kind gift from Prof. Matthias Hentze) and HeLa DPP9^KO cells (prepared in-house) were cultured in DMEM (ThermoFisher, USA) supplemented with 10% FBS (PAN Biotech, Germany), 2 mM L-Glutamin (ThermoFisher, USA) and 1% Penicillin/Streptomycin (100 U mL^−1 Penicillin and 100 µg mL^−1 Streptomycin, ThermoFisher, USA). Cells were seeded in 96-well flat-bottom cell culture plates (Greiner, Germany) at a concentration of 5 × 10^3 cells per well (37 °C and 5% CO2). The indicated concentration of Mitomycin C (MMC, Merck) was added to the cells 24 h after seeding, together with 10 µM of the indicated inhibitor. The inhibitors were refreshed every 24 h. Control cells were treated with DMSO.
(§3) Cell viability was measured 72 hours after the MMC treatment. For this, the medium was removed and replaced with phenol-red free DMEM (ThermoFisher, USA) containing 0.5 mg mL^−1 MTT (Sigma Aldrich, USA). Cells were incubated for 30 min at 37 °C, 5% CO2. Subsequently, the medium was removed and replaced by DMSO. The plates were shaken on an orbital shaker for 20 min before measuring the MTT signal on a CARIOstar Plus microplate reader (BMT labtech, Germany). Each experiment was performed three times, each in triplicates.

HeLa wild-type cells [3] = test: Cell viability assay (MTT), co-treatment with Mitomycin C; type: cell-based; details: for cell viability normalized for each condition seperately to corresponsing [-MMC +inhibitor] control: +MMC co-treatment, individual replicate values (Supplementary Figure 11b); for effect on cell viability / sensitivity to MMC: HeLa wild-type, 1 µM MMC + 10 µM inhibitor, 72 h
Method: as §2, §3

DPP9 = DPP9 (Homo sapiens, UniProt Q86TI2); test: biochemical; type: biochemical; parameters: purchased Proteros Biostructures GmbH, Germany; details: for IC50: GP-AMC 250 µM, 10 nM enzyme, 45 min pre-incubation at 30 °C, read-out: IC50 DPP9
Method: as §1

DPP4 = target: T3, DPP4 (Homo sapiens, UniProt P27487); test: biochemical; type: biochemical
T3 construct: purchased Proteros Biostructures GmbH, Germany
Method: as §1

[4] = Figure 5d S11a, + Ctrl. [+MMC] vs. compound [+MMC], Tukey's multiple comparisons test
[5] = Figure S11b, Ctrl. vs. compound, Uncorrected Fisher's LSD

T3 sequence (P27487 whole entry): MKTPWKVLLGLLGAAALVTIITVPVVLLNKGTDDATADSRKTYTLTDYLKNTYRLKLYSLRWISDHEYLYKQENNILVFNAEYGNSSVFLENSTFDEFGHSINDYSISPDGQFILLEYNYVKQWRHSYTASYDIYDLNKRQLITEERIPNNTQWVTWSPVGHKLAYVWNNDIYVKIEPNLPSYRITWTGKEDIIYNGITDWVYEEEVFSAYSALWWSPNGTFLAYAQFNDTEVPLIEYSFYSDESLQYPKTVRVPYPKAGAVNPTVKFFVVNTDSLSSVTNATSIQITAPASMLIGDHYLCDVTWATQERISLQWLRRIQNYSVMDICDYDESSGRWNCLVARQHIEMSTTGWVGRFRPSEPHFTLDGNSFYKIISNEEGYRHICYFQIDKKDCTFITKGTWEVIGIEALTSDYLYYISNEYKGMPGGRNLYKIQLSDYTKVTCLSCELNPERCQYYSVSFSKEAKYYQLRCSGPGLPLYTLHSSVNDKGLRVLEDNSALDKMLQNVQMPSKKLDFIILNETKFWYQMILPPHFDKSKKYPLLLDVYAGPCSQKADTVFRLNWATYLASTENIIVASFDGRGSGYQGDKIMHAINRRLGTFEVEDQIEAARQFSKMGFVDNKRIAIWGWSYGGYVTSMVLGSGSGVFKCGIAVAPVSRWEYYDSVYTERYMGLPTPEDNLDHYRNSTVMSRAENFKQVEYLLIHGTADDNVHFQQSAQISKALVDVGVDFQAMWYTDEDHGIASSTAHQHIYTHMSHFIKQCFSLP
T2 sequence (Q6V1X1 whole entry): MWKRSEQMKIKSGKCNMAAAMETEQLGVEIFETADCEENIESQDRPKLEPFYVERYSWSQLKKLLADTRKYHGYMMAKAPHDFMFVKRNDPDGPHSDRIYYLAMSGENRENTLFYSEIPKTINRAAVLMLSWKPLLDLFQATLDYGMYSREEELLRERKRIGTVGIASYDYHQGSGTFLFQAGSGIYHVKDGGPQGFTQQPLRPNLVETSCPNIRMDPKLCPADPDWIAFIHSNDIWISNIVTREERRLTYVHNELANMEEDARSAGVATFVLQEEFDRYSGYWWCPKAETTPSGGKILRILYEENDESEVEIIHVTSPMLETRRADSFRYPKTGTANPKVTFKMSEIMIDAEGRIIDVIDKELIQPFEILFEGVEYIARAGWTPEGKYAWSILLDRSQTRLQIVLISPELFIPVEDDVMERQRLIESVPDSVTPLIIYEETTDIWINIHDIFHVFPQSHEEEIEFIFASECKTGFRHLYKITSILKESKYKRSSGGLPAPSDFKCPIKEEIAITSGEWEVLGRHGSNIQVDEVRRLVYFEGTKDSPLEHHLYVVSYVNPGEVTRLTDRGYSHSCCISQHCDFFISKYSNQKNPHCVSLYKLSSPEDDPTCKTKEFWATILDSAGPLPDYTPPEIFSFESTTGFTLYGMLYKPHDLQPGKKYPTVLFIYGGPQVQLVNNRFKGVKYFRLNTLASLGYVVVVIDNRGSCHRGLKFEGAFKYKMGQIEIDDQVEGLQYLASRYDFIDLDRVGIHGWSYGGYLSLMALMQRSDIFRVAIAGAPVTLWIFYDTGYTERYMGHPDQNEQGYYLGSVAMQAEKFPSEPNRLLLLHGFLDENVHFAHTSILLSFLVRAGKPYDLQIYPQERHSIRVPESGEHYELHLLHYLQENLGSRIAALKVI
T1 sequence (Q86TI2 whole entry): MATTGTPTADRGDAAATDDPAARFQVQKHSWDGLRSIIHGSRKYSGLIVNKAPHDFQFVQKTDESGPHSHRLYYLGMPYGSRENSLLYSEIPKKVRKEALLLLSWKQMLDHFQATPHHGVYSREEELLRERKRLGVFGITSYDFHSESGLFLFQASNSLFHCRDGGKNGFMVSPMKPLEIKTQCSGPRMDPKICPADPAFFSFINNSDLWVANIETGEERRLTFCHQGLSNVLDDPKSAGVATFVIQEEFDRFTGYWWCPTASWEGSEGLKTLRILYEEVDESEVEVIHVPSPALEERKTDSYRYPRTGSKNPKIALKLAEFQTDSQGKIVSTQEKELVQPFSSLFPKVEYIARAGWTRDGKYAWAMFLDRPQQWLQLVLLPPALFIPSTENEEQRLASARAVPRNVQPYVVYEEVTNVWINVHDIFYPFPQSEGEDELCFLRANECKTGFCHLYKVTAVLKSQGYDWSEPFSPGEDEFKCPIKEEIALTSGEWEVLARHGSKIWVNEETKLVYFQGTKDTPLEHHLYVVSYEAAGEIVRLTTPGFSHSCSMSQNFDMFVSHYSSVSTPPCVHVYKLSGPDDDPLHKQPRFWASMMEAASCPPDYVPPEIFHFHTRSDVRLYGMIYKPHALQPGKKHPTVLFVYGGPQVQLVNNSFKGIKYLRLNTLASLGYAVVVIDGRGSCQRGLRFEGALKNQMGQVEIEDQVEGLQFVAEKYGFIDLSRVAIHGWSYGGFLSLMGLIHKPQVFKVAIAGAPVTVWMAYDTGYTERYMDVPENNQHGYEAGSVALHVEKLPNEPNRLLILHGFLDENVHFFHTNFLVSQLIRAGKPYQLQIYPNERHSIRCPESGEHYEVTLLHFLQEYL
DPP9, sequence (Q86TI2 whole entry): as above

N[C@@H](CC(=O)N1CCN(C(c2ccc(F)cc2)c2ccc(F)cc2)CC1)C(=O)N1Cc2ccccc2C1 [1G244, reference compound]
95% confidence interval of difference ([1]; Figure 5c): -77,49 to -58,50 | 95% confidence interval of difference ([1]; Figure S10a replicate 1): -64,34 to -33,22 | 95% confidence interval of difference ([1]; Figure S10a replicate 2): -102,2 to -69,11 | 95% confidence interval of difference ([1]; Figure S10a replicate 3): -86,10 to -55,17 | effect on MMC-induced DPP9-BRCA2 PLA events ([1]; HeLa wild-type, 300 nM MMC 24 h, 10 µM inhibitor): fewer MMC-induced PLA events | IC50 (DPP8): 0.0044 ± 0.0015 µM | DPP8 activity [%] (DPP8; c 1.6 nM): 91.0893% and 98.7118% and 100.309% | DPP8 activity [%] (DPP8; c 3.1 nM): 71.9188% and 85.2033% and 73.5988% | DPP8 activity [%] (DPP8; c 6.3 nM): 45.4307% and 54.9695% and 54.3535% | DPP8 activity [%] (DPP8; c 25 nM): 12.8362% and 14.9584% and 14.076% | DPP8 activity [%] (DPP8; c 50 nM): 6.548% and 6.987% and 5.844% | DPP8 activity [%] (DPP8; c 100 nM): 2.369% and 3.267% and 3.933% | Cell viability normalized to mock treated cells + 0 µM MMC (HeLa wild-type cells [2]): 47.738% and 64.0147% and 69.6676% and 64.7998% and 59.8364% and 62.7117% and 63.5049% and 78.6659% and 67.3863% | 95% confidence interval of difference (HeLa wild-type cells [2]): 26,96 to 48,16 | effect on cell viability without MMC (HeLa wild-type cells [2]; HeLa wild-type, 10 µM, 72 h): reduced cell viability | cell viability normalized for each condition seperately to corresponsing [-MMC +inhibitor] control (HeLa wild-type cells [3]): 65.3963% and 56.5004% and 50.0376% and 54.1195% and 51.2842% and 44.9012% and 47.541% and 41.8131% and 48.7041% | 95% confidence interval of difference (HeLa wild-type cells [3]; [4]): 21,97 to 43,17 | 95% confidence interval of difference (HeLa wild-type cells [3]; [5]): 6,539 to 20,16 | effect on cell viability / sensitivity to MMC (HeLa wild-type cells [3]): increases the sensitivity of; also recorded: significantly reduced cell viability | IC50 (DPP9): 0.014 ± 0.002 µM | DPP9 activity [%] (DPP9; c 1.6 nM): 98.3651% and 97.0319% and 99.1099% | DPP9 activity [%] (DPP9; c 3.1 nM): 86.8432% and 92.2931% and 89.5294% | DPP9 activity [%] (DPP9; c 6.3 nM): 74.2081% and 76.5022% and 75.3461% | DPP9 activity [%] (DPP9; c 25 nM): 35.0531% and 41.6358% and 39.7574% | DPP9 activity [%] (DPP9; c 50 nM): 22.1104% and 25.58% and 23.0144% | DPP9 activity [%] (DPP9; c 100 nM): 13.084% and 15.2109% and 15.2279%

N[C@@H](CC(=O)N1CCn2c(nnc2C(F)(F)F)C1)Cc1cc(F)c(F)cc1F [Sitagliptin]
Cell viability normalized to mock treated cells + 0 µM MMC (HeLa wild-type cells [2]): 87.835% (2×) and 113.478% (2×) and 105.575% (2×) and 118.346% (2×) and 103.264% (2×) and 91.1179% (2×) and 93.7454% (2×) and 87.0346% (2×) and 95.6216% (2×) | 95% confidence interval of difference (HeLa wild-type cells [2]): -8,338 to 12,86 | cell viability normalized for each condition seperately to corresponsing [-MMC +inhibitor] control (HeLa wild-type cells [3]): 57.6636% and 68.4041% and 71.5915% and 62.1849% and 65.8665% and 55.7127% and 55.3675% and 52.3411% and 61.9483% | 95% confidence interval of difference (HeLa wild-type cells [3]; [4]): -7,015 to 14,19 | 95% confidence interval of difference (HeLa wild-type cells [3]; [5]): -3,548 to 10,07 | effect on cell viability / sensitivity to MMC (HeLa wild-type cells [3]): no additional effect

CC(C)[C@H](N)C(=O)N1CCC[C@H]1B(O)O [VbP, Val-boroPro, reference compound]
DPP4 activity [%] (DPP4; c 1.6 nM): 67.4885% and 113.658% and 85.6002% | DPP4 activity [%] (DPP4; c 3.1 nM): 70.6772% and 79.559% and 93.9074% | DPP4 activity [%] (DPP4; c 6.3 nM): 51.4161% and 71.0555% and 74.1702% | DPP4 activity [%] (DPP4; c 25 nM): 4.534% and 5.3397% and 4.7469% | DPP4 activity [%] (DPP4; c 50 nM): 3.474% and 3.265% and 3.283% | DPP4 activity [%] (DPP4; c 100 nM): 2.2772% and 2.383% and 2.483%

NC1CCCN(P(N)(=O)NS(=O)(=O)O)C1=O (stereo not shown) [WTC0260B]
IC50 (DPP8): 27.9 µM | IC50 (DPP9): 6.26 µM
